The numbers were not newly measured in US6288040A, “Medicament excipient particles for tissue-specific application of a medicament” (DSS Drug Delivery Service Gesellschaft zur Forderung der …, priority 1997, dated 2001), which cites them from elsewhere.

For this series, the system named is mice. As to conditions: free dalargin, high dosage 20 mg/kg.

Non-standard residues stand in square brackets, D forms with d. No end group written: not given here.

As to “Tyr-D-Ala-Gly-Phe-Leu-Arg (Y[dA]GFLR) [dalargin, hexapeptide, leu-enkephalin-analogon, opioid receptor agonist]”, the “analgesic effect after i.v. administration of dalargin” value is “does not lead to an analgesic effect”.
